The term IC50 denotes the concentration at which inhibition is half-maximal. As a reminder, the microsomal CLint is the rate of metabolic loss divided by the concentration. As a reminder, the Vd is a proportionality between amount in the body and measured concentration, not a real space. A lower Vd goes with little distribution into tissue. The half-life is the time in which the quantity being followed falls by half. The low end stands for rapid decline, the high end for slow decline.

Bounds are passed on as bounds.

The record followed here is ChEMBL document CHEMBL1138453, “Synthesis and SAR of 1,2,3,4-tetrahydroisoquinolin-1-ones as novel G-protein-coupled receptor 40 (GPR40) antagonists” (Bioorg Med Chem Lett, 2009).

Data set [1] concerns the target Free fatty acid receptor 1 (Homo sapiens, UniProt O14842). As to the kind of experiment: Antagonist activity at human GPR40 expressed HEK293 cells assessed as effect on intracellular calcium concentration by FLIPR assay. It is filed as functional, cell-based.
Data set [2] deals with Liver microsomes. As to the kind of experiment: Metabolic stability in rat liver microsomes assessed as clearance. It is filed as ADME, Microsome. For orientation: Liver microsomes are vesicles of endoplasmic reticulum, rich in cytochrome P450 enzymes.
Data set [3] concerns Rattus norvegicus. As to the kind of experiment: Clearance in iv dosed Sprague-Dawley rat. The format is ADME, organism-based. As to conditions: in vivo.
Data set [4] has as its system Liver microsomes. As to the kind of experiment: (§1) Metabolic stability in human liver microsomes assessed as clearance. It is filed as ADME, Microsome. As to conditions: microsomes.
The nature of data set [5]: Drug level in bile of iv dosed bile duct cannulated rat. The format is ADME, organism-based. The note with it: read-out: Drug uptake.
In data set [6] the test system is Rattus norvegicus. As to the kind of experiment: Clearance in iv dosed bile duct cannulated rat. It is filed as ADME, organism-based. As to conditions: in vivo.
Data set [7] in a line: Metabolic stability in dog liver microsomes assessed as clearance. It is filed as ADME, Canis lupus familiaris, Microsome.
The subject of data set [8] is Canis familiaris. As to the kind of experiment: Clearance in iv dosed dog. The note with it: in vivo. It is filed as ADME, organism-based, Canis lupus familiaris.
A short description of data set [9]: Permeability from basolateral to apical side of the human Caco-2 membrane. The note with it: read-out: permeability. It is filed as ADME, cell-based.
Data set [10] is described as follows: Volume of distribution in iv dosed Sprague-Dawley rat. It is filed as ADME, organism-based. As to conditions: in vivo.
The nature of data set [11]: Half life in iv dosed Sprague-Dawley rat. It is filed as ADME, organism-based. As to conditions: in vivo.
Data set [12] is described as follows: as §1. The format is ADME, Microsome. As to conditions: liver microsomes.
Data set [13] can be described thus: Permeability from apical to basolateral side of the human Caco-2 membrane. It is filed as ADME, cell-based. The note with it: read-out: permeability.

Chain of Free fatty acid receptor 1 (O14842 whole entry): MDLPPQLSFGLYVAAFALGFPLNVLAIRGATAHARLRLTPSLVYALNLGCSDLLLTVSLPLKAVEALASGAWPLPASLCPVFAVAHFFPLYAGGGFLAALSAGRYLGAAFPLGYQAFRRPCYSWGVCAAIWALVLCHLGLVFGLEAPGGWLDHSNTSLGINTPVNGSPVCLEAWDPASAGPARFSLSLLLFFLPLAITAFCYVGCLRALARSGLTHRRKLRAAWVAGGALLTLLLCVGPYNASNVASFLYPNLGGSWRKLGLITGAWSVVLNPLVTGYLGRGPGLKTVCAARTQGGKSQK

`CCC(CC)CN1C(=O)c2ccccc2[C@@H](C(=O)O)[C@@H]1c1nc2ccccc2s1`: the IC50 in [1] worked out at 10 nM. Further, the clearance in [2] is less than 18 µL/min/mg.
In the case of `CCCN1C(=O)c2ccccc2[C@@H](C(=O)O)[C@@H]1c1cccc(Cl)c1`, the IC50 in [1] came out at 228 nM. The clearance in [2] is less than 14 µL/min/mg; in data set [3], 2.96 mL/min/kg.
For the molecule `CCC(CC)CN1C(=O)c2ccccc2[C@@H](C(=O)O)[C@@H]1c1ccc(Cl)c(Cl)c1`, the IC50 in [1] came out at 10 nM. Moreover, in [2], the clearance amounted to 27 µL/min/mg.
In the case of `CCCN1C(=O)c2ccccc2[C@@H](C(=O)O)[C@@H]1c1ccc(Oc2ccc(C)c(C)c2)cc1`, in [1], the IC50 amounted to 3 nM. Moreover, the clearance was less than 8 µL/min/mg in data set [4] and less than 14 µL/min/mg in data set [2].
In the case of `CCCN1C(=O)c2ccccc2[C@@H](C(=O)O)[C@@H]1c1ccc(O[C@H]2CC[C@@H](C)CC2)cc1`, in [5], the dose excreted amounted to 22.9%. In addition, the IC50 in [1] worked out at 10 nM. The clearance was less than 12 µL/min/mg in data set [4], 84.5 mL/min/kg in data set [6] and 274 µL/min/mg in [2].
For `CCCN1C(=O)c2ccccc2[C@@H](C(=O)O)[C@@H]1c1ccc(OC)cc1`, the 50% inhibitory concentration (IC50) in [1] came to 2100 nM. Also, the clearance in data set [4] was less than 8 µL/min/mg; in data set [2], less than 14 µL/min/mg.
The matching figures for `CCCN1C(=O)c2ccccc2[C@@H](C(=O)O)[C@@H]1c1ccc(Oc2cc(C)cc(C)c2)cc1`: 2 nM, 21 µL/min/mg and 46 µL/min/mg.
For the molecule `CCCN1C(=O)c2ccccc2[C@@H](C(=O)O)[C@@H]1c1cnc(O[C@H]2CC[C@@H](C)CC2)nc1`, the dose excreted in data set [5] stood at 69.9%. Further, the clearance in data set [6] worked out at 136 mL/min/kg.
For the molecule `CC[C@H](C)CN1C(=O)c2ccccc2[C@@H](C(=O)O)[C@@H]1c1ccc(Cl)c(Cl)c1`, the IC50 in data set [1] is 13 nM. In addition, the clearance in [2] was less than 14 µL/min/mg.
The corresponding values for `CCCN1C(=O)c2ccccc2[C@@H](C(=O)O)[C@@H]1c1ccc(Cl)c(Cl)c1` are 89 nM and less than 14 µL/min/mg.
Regarding `CCCN1C(=O)c2ccccc2[C@@H](C(=O)O)[C@@H]1c1ccc(Oc2cc(Cl)cc(Cl)c2)cc1`, the dose excreted in [5] was found to be 64.6%. For the same molecule, the intrinsic clearance (microsomal CLint) in [7] amounted to 2.99 µL/min/mg. The clearance in data set [8] worked out at 7.4 mL/min/kg; in data set [6] it was 32.7 mL/min/kg.
Consider `CC[C@H](C)CN1C(=O)c2ccccc2[C@@H](C(=O)O)[C@@H]1c1cc2ccccc2o1`, for which the Papp B→A in data set [9] worked out at 18.7 ×10⁻⁶ cm/s. In [10], this molecule showed a volume of distribution (Vd) of 1.1 L/kg. In [11], this molecule had a half-life of 5.4 h. Besides, the half-inhibitory concentration (IC50) in [1] came to 20 nM. In data set [12], the microsomal CLint was less than 8 µL/min/mg. Also, the clearance in [2] was less than 14.1 µL/min/mg; in data set [3], 4.3 mL/min/kg. Also, the Papp A→B in [13] stood at 12 ×10⁻⁶ cm/s.
Regarding `CCCN1C(=O)c2ccccc2[C@@H](C(=O)O)[C@@H]1c1cc2ccccc2o1`, in [1], the IC50 worked out at 119 nM. The clearance is 18 µL/min/mg in data set [2] and 3 mL/min/kg in [3].
Take `CCCN1C(=O)c2ccccc2[C@@H](C(=O)O)[C@@H]1c1ccc(Oc2ccc(C(F)(F)F)cn2)cc1`: in [1], the IC50 is 29 nM. The clearance is less than 8 µL/min/mg in [4] and less than 14 µL/min/mg in data set [2].
For `O=C(O)[C@@H]1c2ccccc2C(=O)N(CC2CC2)[C@H]1c1ccc(Oc2ccccc2)cc1`, the concentration for half-maximal inhibition (IC50) in [1] is 4 nM. In addition, the clearance in data set [2] came out at 120 µL/min/mg.
Consider `CCCN1C(=O)c2ccccc2[C@@H](C(=O)O)[C@@H]1c1ccc(OCc2ccccc2)cc1`, for which the half-inhibitory concentration (IC50) in data set [1] turned out to be 96 nM. Besides, the clearance in data set [4] is less than 8 µL/min/mg; in [2] it was less than 16 µL/min/mg; in data set [3] it was 82.8 mL/min/kg.
On to `CN1C(=O)c2ccccc2[C@@H](C(=O)O)[C@@H]1c1ccc(Oc2ccccc2)cc1`, for which the IC50 in data set [1] turned out to be 156 nM. Also, in [2], the clearance came out at 27 µL/min/mg.
Take `CCN1C(=O)c2ccccc2[C@@H](C(=O)O)[C@@H]1c1ccc(Oc2ccccc2)cc1`: the dose excreted in data set [5] was determined as 13.9%. In [1], the 50% inhibitory concentration (IC50) came out at 12 nM. For the same molecule, the clearance was less than 9 µL/min/mg in data set [4], 111 mL/min/kg in data set [6] and 97 µL/min/mg in [2].
